Assays:
[1] = tested on: growth cones of Xenopus spinal neurons; assay: Growth cone turning assay in a netrin-1 gradient; type: cell-based; conditions: for growth cone turning response in a GPI-1046 gradient: GPI-1046 100 μM in the pipette
Description: Growth cone turning assay. Microscopic gradients of netrin-1 (5 μg/ml in the pipette), MAG (150 μg/ml in the pipette) and GPI-1046 (100 μM in the pipette) were produced as previously described (Lohof et al., J Neurosci 12:1253-61, 1992; and Zheng et al., Nature 368:140-4, 1994). […] Xenopus spinal neurons were used 14 to 20 hrs after plating and neurons with the lineage-tracer were identified under fluorescent microscope and used for turning assay at room temperature as previously described (Ming et al., Nature 417:411-8, 2002; Ming et al., Neuron 19:1225-35, 1997; Lohof et al., J Neurosci 12:1253-61, 1992; and Zheng et al., Nature 368:140-4, 1994). GFP^+ hippocampal neurons were used 48-72 hours after plating and individual axon was identified for turning assay at the room temperature. The turning angle was defined by the angle between the original direction of neurite extension and a straight line connecting the positions of the center of the growth cone at the onset and the end of the 30 min period. The rates of neurite extension were calculated based on the net neurite extension during the turning assay. Only those growth cones of isolated neurons with a net neurite extension >5 μm over the 30-min period were included for analysis. Statistical significance was assessed using the Kolmogorov-Smirnov test.

FKBPs = conditions: Steiner et al., PNAS 94:2019-24, 1997; cited from earlier work
[2] = tested on: axonal growth cones of rat hippocampal neurons; assay: Growth cone turning assay in a MAG gradient; type: cell-based; conditions: MAG 150 μg/ml in the pipette
Description: Primary hippocampal neuronal cultures and transfection. Hippocampal neurons were isolated from postnatal rats (P3-P5) and were cultured on poly-L-lysine coated coverslips as previously described (Song et al., Nature 417:39-44, 2002). These neurons were transfected with the AMAXA transfection system following protocols from the manufacturer. Briefly, hippocampal neurons were isolated and 100 μl of nucleofector solution was added to resuspend the cell pellet. Different expression constructs (1-5 μg), GFP, FKBP52-FD67DV, TRPC1-P645A or a combination of TRPC1-P645A and FKBP52-WT, were added to the cell suspension and then transferred to cuvettes for electroporation. The cells were cultured in DMEM with 10% fetal bovine serum for 24 hrs before changing to serum-free neurobasal medium (Song et al., Nature 417:39-44, 2002). Growth cone turning assay. Microscopic gradients of netrin-1 (5 μg/ml in the pipette), MAG (150 μg/ml in the pipette) and GPI-1046 (100 μM in the pipette) were produced as previously described (Lohof et al., J Neurosci 12:1253-61, 1992; and Zheng et al., Nature 368:140-4, 1994). […] The rates of neurite extension were calculated based on the net neurite extension during the turning assay. […] Statistical significance was assessed using the Kolmogorov-Smirnov test.

[3] = tested on: growth cones of Xenopus spinal neurons; assay: Ca2+ imaging of growth cones of cultured spinal neurons (netrin-1-induced Ca2+ rise); type: cell-based
Description: Ca^2+ imaging of cultured spinal neurons. Ca^2+ imaging of growth cones of Xenopus spinal neurons was carried out as previously described (Ming et al., Nature 417:411-8, 2002; and Ming et al., Neuron 19:1225-35, 1997). Specifically, isolated Xenopus spinal neurons were loaded with Fluo-4 AM (2 μM, Molecular Probes) in the culture media without serum for 30 min at room temperature, and rinsed with the media for growth cone turning assay. Ca^2+ imaging was performed using a Zeiss 510 META system equipped with a 20× objective (NA 0.8). Excitation was at 488 nm by argon laser and the emitted fluorescence was collected at […]. Fluorescence and bright-field images were simultaneously acquired at every 30 seconds with a frame scan. The fluorescence intensity of each time point was measured over a fixed rectangular region of interest that covers the entire growth cone and normalized to the average fluorescence intensity that was measured during a 5 min baseline period (prior to netrin-1 application).

[4] = tested on: commissural interneuron axons in developing Xenopus embryos; assay: Commissural interneuron axon midline guidance in developing spinal cord (3A10 immunostaining); type: in vivo
Description: Xenopus embryo injection and cell culture. Blastomere injections of morpholino oligos or mRNAs encoding TRPC1, FKBP52 or their mutant forms into early stages of Xenopus embryos and culturing of spinal neurons from these injected embryos were performed as previously described (Shim et al., Nat Neurosci 8:730-5, 2005). Specifically, fertilized embryos were injected at the one- or two-cell stage, with a mixture of the morpholino (10 ng/embryo) or mRNA (2-3 ng/embryo), and a lineage tracer. The following DNA constructs were subcloned into the pCS2 vector and used for in vitro transcription with the mMESSAGE mMACHINE SP6 kit (Ambion): Myc-FKBP52-WT, Myc-FKBP52-FD67DV, HA-TRPC1-WT, HA-TRPC1-P645L, HA-TRPC1-P645A, GFP-XTRP C1. A morpholino oligo directed against Xenopus DCC (XDCC-MO) was designed with the following sequence: 5′ […] 3′. Injected embryos at stage 22 were used for cultures of spinal neurons as previous described (Shim et al., Nat Neurosci 8:730-5, 2005).
Whole-mount immunocytochemistry and confocal imaging. Embryos at stage 23-28 were fixed and processed for immunocytochemistry as previously described (Shim et al., Nat Neurosci 8:730-5, 2005; and Gomez et al., Nature 397:350-5, 1999). […] Statistical significance was assessed using the Bootstrap test and accepted if p <0.01.

[5] = tested on: TRPC1 binding to GST-Homer; assay: GST-Homer pull-down of TRPC1 from lysates of treated HEK293 cells; type: cell-based, human; conditions: HEK293 cells transfected with HA-TRPC1 and FKBP52, GPI-1046 1 nM, 100 nM, 500 nM, 1 μM for 30 min
Description: GST pull-down, Co-IP and immunocytochemistry. Protein binding assays were done as previously described (Yuan et al., Cell 114:777-89, 2003). Transfected cells were harvested and lysed using 500 μl of binding buffer (1×PBS buffer containing 1 mM NaVO3, 10 mM NaPyrophosphate, 50 mM NaF [pH 7.4], and 1% Triton X-100). The cell extracts were sonicated, and insoluble material was spun down at 30,000 g for 20 min. For GST pull-down, GST-H3 EVH was expressed in BL21 bacterial cells by growing a 400 ml culture at 37 C until […] was 0.4-0.6. Cells were induced with […] IPTG for an additional hour, harvested, lysed in […] of 1% Triton X-100 in 1×PBS+[…] PMSF, sonicated 3×10 strokes, and spun down at 12,000 g for 5 min. The supernatant was mixed 1:1 with a slurry of GST-agarose beads (Sigma) for 30 min at 4 C. Beads were washed 2 times with 1% Triton X-100 in 1×PBS and 2 times with 1×PBS. 50 μl of 1:1 slurry of GST-H3 EVH beads were used per 100 μl cell extract and rocked for 2 hr at 4° C. For co-IP experiments, 1 μg of purified antibody or 2 μl of crude antiserum was added to 100 μl of cell extract and incubated for 1 hr at 4° C. Then, 1:1 slurry of protein A or G SEPHAROSE 4B beads were added to the antibody-extract mix and incubated for an additional hour at 4° C. […]

calcineurin = conditions: Steiner et al., PNAS 94:2019-24, 1997; cited from earlier work

Compound: CCC(C)(C)C(=O)C(=O)N1CCC[C@H]1C(=O)OCCCc1cccnc1 [GPI-1046, 3-(3-pyridyl)-1-propyl (2S)-1-(3,3-dimethyl-1,2-dioxopentyl)-2-pyrrolidinecarboxylate]
- growth cone turning response in a GPI-1046 gradient ([1]; uniform netrin-1 10 ng/ml in the bath): significant repulsive turning responses
- growth cone turning response in a GPI-1046 gradient ([1]; without uniform netrin-1 stimulation): no bias in the direction of growth cone extension
- growth cone turning response in a netrin-1 gradient ([1]; netrin-1 5 μg/ml in the pipette, bath application of 100 nM, 30 min): blocked netrin-1-induced attraction
- inhibition of FKBP isomerase activity (FKBPs): inhibits their isomerase activity
- MAG-induced growth cone repulsion [2]: abolished MAG-induced repulsion
- netrin-1-induced Ca2+ rise in growth cones ([3]; Xenopus spinal neurons, Fluo-4, netrin-1 5 ng/ml, GPI-1046 100 nM in bath): abolished netrin-1-induced Ca^2+ rise
- commissural interneuron axon midline guidance ([4]; 0.5 μM applied to Xenopus embryos between stage 22-25): significant guidance defects
- TRPC1 binding to GST-Homer [5]: increased TRPC1 binding to GST-Homer
- inhibition of calcineurin (calcineurin): does not inhibit calcineurin

Compound: XDCC-MO: morpholino oligo directed against Xenopus DCC, 5′ CCAAGACAATTCTCCATATTTCAGC 3′ (all phosphorodiamidate morpholino (PMO))
- netrin-1-induced Ca2+ rise in growth cones ([3]; neurons from embryos injected with morpholino (10 ng/embryo)): abolished netrin-1-induced Ca^2+ rise
- commissural interneuron axon midline guidance ([4]; morpholino injected at the one-cell stage, stage 25 embryos): failed to reach the midline

Source: patent publication US20110171230A1, “Method of Identifying Agents that Promote Axonal Development” (The Johns Hopkins University, priority 2008, published 2011)
